The results in this text go back to patent US20250186419A1, “DOSING REGIMENS FOR TREATING PAIN” (VERTEX PHARMACEUTICALS INCORPORATED, priority 2023, published 2025).

The test system of data set [1] is acute pain after an abdominoplasty. The experiment in a line: Randomized, double-blind, placebo-controlled, 3-arm study of Compound 1 in acute pain after an abdominoplasty (Example 6). Conditions: Compound 1 100 mg first dose, then 50 mg q12 h, placebo 8 hours.
Data set [2] deals with painful diabetic peripheral neuropathy (DPN). Put plainly: Randomized, double-blind, active-controlled, dose-ranging, 4-arm study of Compound 1 in painful diabetic peripheral neuropathy (Example 8). The text has this: The study population included male and female subjects 18 through 80 years of age, inclusive, with presence of bilateral pain in lower extremities due to DPN for at least 1 year, and weekly average Numeric Pain Rating Scale (NPRS) pain score of ≥4.
Subjects who met eligibility criteria entered a 7-day Run-in Period to establish their baseline Numeric Pain Rating Scale (NPRS) pain score and Daily Sleep Interference Scale (DSIS) score. Subjects with a baseline average NPRS score of ≥4 points with limited variation (SD<25% of mean) were eligible for the 12-week Treatment Period followed by a Safety Follow-up Visit.
Randomization was stratified by sex (female and male) and body mass index (≥30 and <30 kg/m^2). To maintain the blind, all subjects received the same number of tablets once daily (qd) in the morning and the same number of capsules 3 times per day (tid) in a double-dummy design.
Acetaminophen was be permitted as a pain rescue medication as needed (prn) throughout the study. Subjects were permitted to take 500 mg of acetaminophen every 4 to 6 hours as needed, up to a maximum of 2500 mg in any 24-hour period.
The reference drug was administered orally in a 100 mg capsule tid.
From Day −7 through Week 12, subjects reported their average daily pain during the last 24 hours on the NPRS via e-diary; during the treatment period, the NPRS was completed in the morning before the first daily dose. Subjects also reported their current pain score before each administration of rescue medication. The NPRS scores from the daily e-diary, especially the change from baseline in the weekly average at Week 12, were used in the primary endpoint analysis, and the proportion of subjects with ≥30%, ≥50%, and ≥70% reduction in weekly average scores, especially at Week 12, as reported in the daily e-diary were used in the secondary endpoint analyses. For the primary endpoint, daily NPRS scores were averaged over a weekly period to reduce the impact of individual high or low pain scores.
Daily Sleep Interference Scale (DSIS): Pain frequently interferes with sleep, and sleep is important to quality of life. The FDA recommends evaluating the effect of analgesics on sleep. DSIS is commonly used in neuropathic pain studies and is assessed on an 11-point scale. The 11 point scale ranges from 0 (none) to 10 (severe). The DSIS was completed each morning before the first daily dose in an e-diary to describe how pain interfered with the subject's sleep. The change from baseline in the weekly average of DSIS, especially at Week 12, was used in the secondary endpoint analysis.
Patient Global Impression of Change (PGIC): The PGIC is commonly used in neuropathic pain studies, and the Initiative on Methods, Measurement, and Pain Assessment in Clinical Trials (IMMPACT) group recommends it as a core outcome measure for chronic pain studies and is thus evaluated in this study. There is some evidence that PGIC may be more sensitive in neuropathic pain studies than pain intensity assessments because it may assess additional quality of life measures. The assessment consists of a single item on a 7-point scale from 1 (very much improved) to 7 (very much worse). The PGIC was completed at selected study visits to quantify the change in subjects' overall status. The proportion of subjects categorized as improved on the PGIC assessment, especially at Week 12, was used in the secondary endpoint analysis.
Proportion of subjects using Rescue Medication and Total Medication Usage: Acetaminophen was permitted as a pain rescue medication as needed (prn) throughout the study.

Data set [3] relates to acute pain after a bunionectomy. The experiment in a line: Randomized, double-blind, placebo-controlled, 3-arm study of Compound 1 in acute pain after a bunionectomy (Example 5). Conditions: Compound 1 100 mg first dose, then 50 mg q12 h, placebo 8 hours.
Data set [4] relates to pain following bunionectomy. The experiment in a line: Randomized, double-blind, placebo-controlled, 5-arm study of Compound 1 in subjects with pain following bunionectomy (Example 4). Conditions: for Mean SPID48: oral.
Procedure: A randomized, double-blind, placebo-controlled, 5-arm, parallel-design study to evaluate the efficacy and safety of Compound 1 on acute surgical pain is conducted. Bunionectomy is a well-established, multi-dose, surgical, acute pain model. A randomized, double-blind study design was used to avoid observer bias and reduce symptoms or outcomes arising from the subjects' knowledge of treatment.
Male and female patients between the ages of 18 and 75 years (inclusive) with pain that is ≥4 on an 11-point Numeric Pain Rating Scale (NPRS) and is moderate or severe on the Verbal Categorical Rating Scale (VRS) after bunionectomy are included in the study.
Investigational Drug: Compound 1. The investigational drug was administered orally in 10 mg tablets. […] The investigational drug was administered every 12 hours (q12h). A low, mid, and high dosing regimen were tested. The first dose in the low dosing regime was 20 mg, and the subsequent doses were 10 mg g12h. The first dose in the mid dosing regime was 60 mg, and the subsequent doses were 30 mg g12h. The first dose in the high dosing regime was 100 mg, and the subsequent doses were 50 mg g12h.
The reference drug was administered orally in 5 mg/325 mg capsules, supplied as over-encapsulated 5 mg/325 mg tablets. The reference drug was administered in a dose of 5 mg/325 mg every 6 hours (q6h).
After a screening period, subjects receive a primary unilateral first metatarsal bunionectomy repair on Day minus one under regional anesthesia (Mayo and popliteal block). A continuous popliteal sciatic block infusion (0.2% ropivacaine) is started after surgery, and remains in place until approximately 3 AM on Day 1. After removal of the popliteal sciatic block, each subject is randomized when the subject requests the first dose of study drug for pain relief and reports pain ≥4 on the NPRS and moderate or severe pain on the VRS.
Randomization was stratified by site and baseline NPRS (<8 versus ≥8). To maintain the blind, all subjects receive the same number of capsules in a double-dummy design.
Compound 1 was administered every 12 hours (q12h). The final dose of Compound 1 is given 36 hours after the first dose.
Compound 1 placebo capsules are administered every 12 hours (q12h).
11-point (0 to 10) Numeric Pain Rating Scale: NPRS scores are frequently used in bunionectomy studies and are recognized by the FDA as a valid pain intensity measure. On the 11-point NPRS, a score of 0 denotes no pain, and a score of 10 denotes the worst pain intensity imaginable. Subjects reported their pain on the 11-point NPRS immediately before their first dose of the study drug (baseline NPRS score) and at intervals over 48 hour period (i.e. 0.5, 1, 1.5, 2, 3, 4, 5, 6, 8, 12, 16, 20, 24, 28, 32, 36, 40, 44, and 48 hours (±5 minutes)) after the first dose of the study drug. Pain intensity is also recorded on the NPRS immediately before each administration of rescue medication. Pain intensity scores that are collected within 4 hours after a dose of rescue medication are deemed missing, and the missing values are imputed as the intensity recorded immediately before the administration of rescue medication.
SPID-48 is the sum of the pain intensity difference (PID) over the 48 hour time period. A pain intensity score of 0 (no pain) to 10 (worse possible pain) is obtained before starting the study and throughout the 48 time period. The pain score at each assessment time is subtracted from the baseline pain score to provide the total sum score or SPID-48. A higher SPID-48 is better and indicates a reduction in pain intensity compared to the baseline score.
4-point Verbal Categorical Rating Scale: Subjects report their pain on the 4-point VRS (none, mild, moderate, or severe) immediately before their first dose of the study drug (baseline VRS).
Data set [5] has as its system patients undergoing abdominoplasty. The experiment in a line: Study of Compound 1 in patients undergoing abdominoplasty (NCT05034952). The data set is classed as in vivo, human.
Data set [6] has as its system acute pain (surgical and non-surgical). The experiment in a line: Single-arm study of safety and effectiveness of Compound 1 for acute pain, surgical and non-surgical subjects (Example 7). The data set is classed as in vivo, human. Conditions: Compound 1 100 mg first dose, then 50 mg q12h.
Setting [7] is: Compound 1 combined dose groups, pregabalin 100 mg tid, 12 weeks.

Each structure is given as a SMILES string. Entries after “also recorded” stand apart in the source; their conditions may differ.

With `COc1c([C@H]2[C@H](C(=O)Nc3ccnc(C(N)=O)c3)O[C@@](C)(C(F)(F)F)[C@H]2C)ccc(F)c1F` [Compound 1, (2R,3S,4S,5R)-4-[[3-(3,4-difluoro-2-methoxy-phenyl)-4,5-dimethyl-5-(trifluoromethyl)tetrahydrofuran-2-carbonyl]amino]pyridine-2-carboxamide], the “Median time to ≥2-point reduction in NPRS from baseline” value in data set [1] worked out at 2 h. Moreover, the “Change from baseline at week 12 in weekly average of daily pain on the NPRS (LS Mean)” value is −2.18 in data set [2] (Compound 1 23 mg qd (low dose), painful DPN); −2.11 in data set [2] (Compound 1 46 mg qd (mid dose), painful DPN); −2.26 in data set [2] (Compound 1 69 mg qd (high dose), painful DPN). Further, in data set [2] (all three Compound 1 dose groups (23, 46, 69 mg qd), 12-week treatment, painful DPN), the “Reduction in pain from baseline (NPRS)” value was “statistically significant and clinically meaningful reduction in pain from baseline; also recorded: significant mean reduction in pain from baseline that started from week 1”. In addition, the “Sleep (Daily Sleep Interference Scale, DSIS) at week 12” value in data set [2] (all three Compound 1 dose groups (23, 46, 69 mg qd), painful DPN) is “improvement in sleep”. In data set [3], the “Median time to 2-point reduction in NPRS from baseline” value was 4 h. The Onset of action entry in data set [4] (Compound 1 high dose, 48 hour assessment) is “rapid and was sustained through the duration of assessment”. The “Mean SPID48” value is 137.8 in data set [4] (High-dose Compound 1: 100 mg first dose/50 mg every 12 hours, n = 60, NPRS 0 to 48 hours); 112.9 in data set [4] (Low-dose Compound 1: 20 mg first dose/10 mg every 12 hours, n = 33, NPRS 0 to 48 hours); 86.9 in data set [4] (Mid-dose Compound 1: 60 mg first dose/30 mg every 12 hours, n = 62, NPRS 0 to 48 hours). Also, the “Mean SPID48 difference from placebo” value in data set [4] (Low-dose Compound 1: 20 mg first dose/10 mg every 12 hours, n = 33) is on record as 11.9; in data set [4] (Mid-dose Compound 1: 60 mg first dose/30 mg every 12 hours, n = 62) it was −14.1. In addition, the “Improvement in SPID48” value in data set [5] is recorded as “statistically significant improvement in SPID48”. The “Patients reporting good, very good, or excellent on Patient Global Assessment (PGA) at end of treatment” value in data set [6] (all patients (256 subjects)) was 83.2%; in data set [6] (non-surgical patients (34 subjects)), 91.2%; in data set [6] (surgical patients (222 subjects)), 82.0%. Moreover, the “Serious adverse events related to study drug” value in data set [6] (up to 14 days) was “no serious adverse events were related to Compound 1”. In addition, in data set [6] (up to 14 days, 256 subjects), the “Incidence of serious adverse events” value is listed as 0.8%. Besides, in data set [6] (up to 14 days, 256 subjects), the “Treatment discontinuations due to adverse events” value amounted to 2.0%. In addition, in data set [6] (up to 14 days, surgical and non-surgical pain, 256 subjects), the Safety and tolerability result was “generally safe and well tolerated”.

Regarding `CC(C)C[C@H](CN)CC(=O)O` [Pregabalin, reference compound], in data set [2] (setting [7]), the “Incidence of dizziness (adverse event)” value is reported as 9.3%, the “Incidence of peripheral edema (adverse event)” value amounted to 5.6% and the “Incidence of weight increased (adverse event)” value is given as 7.4%. Moreover, in data set [2] (Pregabalin 100 mg tid, painful DPN), the “Change from baseline at week 12 in weekly average of daily pain on the NPRS (LS Mean)” value was −2.09. In addition, the Related adverse events in data set [2] (patients treated with Compound 1 (combined), patients treated with pregabalin 100 mg tid, 12 weeks) amounted to 27.8%.
